Some test systems named below: SK-MEL-2 melanoma; MOLT-4 leukemia; SR leukemia; HOP-62 NSCLC; SNB-19 CNS; HCT-116 colon; EKVX NSCLC; HOP-92 NSCLC; KM12 colon; SK-OV-3 ovarian.
What all share (assay): NCI anticancer screen, dose series, 48 h

Among the data in PubChem BioAssay (NCI) are TGI and GI50 values, retold here.

Each structure is given as a SMILES string.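 Results reflect a 48-hour exposure of cells in 96-well plates to compound at five concentrations. GI50 is the concentration that inhibits growth by half. At the TGI there is no net growth.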 Where a SMILES comes first, the peptide text is derived from it. The star is where a group is joined. Boc = CC(C)(C)OC(=O)*

Take `COC(=O)C(Cc1c[nH]c2ccccc12)NC(=O)C(Cc1c[nH]c2ccccc12)NC(=O)C(Cc1c[nH]c2ccccc12)NC(=O)C(Cc1c[nH]c2ccccc12)NC(=O)C(Cc1c[nH]c2ccccc12)NC(=O)C(Cc1c[nH]c2ccccc12)NC(=O)C(Cc1c[nH]c2ccccc12)NC(=O)C(Cc1c[nH]c2ccccc12)NC(=O)OC(C)(C)C` (stereo unspecified) (Boc-WWWWWWWW-OMe; configuration not given here): the TGI with SK-MEL-2 melanoma, with MOLT-4 leukemia, in the test on SR leukemia, in the test with HOP-62 NSCLC, with SNB-19 CNS and in the test with HCT-116 colon was more than 100 µM in each case.
Take `N/C(=N\N=C\c1ccc2c(c1)OCCO2)NO`: the TGI with SK-MEL-2 melanoma was 70.4 µM; with EKVX NSCLC, more than 100 µM; in the test on MOLT-4 leukemia, more than 100 µM; in the test with HOP-62 NSCLC it was 93.2 µM; with SNB-19 CNS, more than 32.6 µM; with HCT-116 colon, more than 100 µM. Besides, the TGI is 80.6 µM in the test with HOP-92 NSCLC, more than 100 µM with KM12 colon and more than 100 µM with SK-OV-3 ovarian.
`O=C1c2ccccc2C(=O)N1CC(O)COc1cccc2ccccc12` (stereo unspecified): the TGI with EKVX NSCLC, in the test on MOLT-4 leukemia, in the test with SR leukemia, in the test with HOP-62 NSCLC, in the test with SNB-19 CNS and with HCT-116 colon was more than 100 µM in each case. This compound registered a TGI with SK-OV-3 ovarian of more than 100 µM.
As for `Cc1nc2c(=O)n(C)ncc2[nH]1`, the TGI in the test on SK-MEL-2 melanoma, in the test on EKVX NSCLC, in the test on MOLT-4 leukemia, with SR leukemia, with HOP-62 NSCLC and with SNB-19 CNS was more than 100 µM each time. The TGI with HCT-116 colon and with KM12 colon was more than 100 µM in each case.
For `C=CC(Cl)(CBr)CCC(Br)C(C)(C)Cl` (stereo unspecified), the TGI was found to be 37.5 µM in the test on SK-MEL-2 melanoma; 42.4 µM in the test on EKVX NSCLC; 21.1 µM with MOLT-4 leukemia; 30.6 µM in the test with HOP-62 NSCLC; 32.8 µM in the test with SNB-19 CNS; 25.4 µM in the test with HCT-116 colon. For the same compound, the TGI with HOP-92 NSCLC is 39.8 µM; in the test on SK-OV-3 ovarian, more than 100 µM.
`CC(=O)Nc1c(C)cc2c(nc3n2CCC3O)c1[N+](=O)[O-]` (stereo unspecified): the TGI with SK-MEL-2 melanoma, in the test on EKVX NSCLC, in the test on MOLT-4 leukemia, with SNB-19 CNS, with HCT-116 colon and with HOP-92 NSCLC was more than 100 µM each time. For the same compound, the TGI in the test with KM12 colon and in the test on SK-OV-3 ovarian was more than 100 µM in each case.
For the compound `COc1ccc2nc(-c3ccc(O)cc3)sc2c1`, the TGI was more than 100 µM with SK-MEL-2 melanoma; 35.7 µM in the test on EKVX NSCLC; 78.3 µM in the test on MOLT-4 leukemia; 22.5 µM in the test with SR leukemia; more than 100 µM in the test on SNB-19 CNS; 32.7 µM with HCT-116 colon. The TGI with KM12 colon turned out to be 86.9 µM; in the test with SK-OV-3 ovarian it was 91.2 µM.
In the case of `OCCNCNc1nc(NCNCCO)nc(N(CNCCO)CNCCO)n1`, the TGI in the test on SK-MEL-2 melanoma is 40.9 µM; in the test on EKVX NSCLC it was 57 µM; in the test with MOLT-4 leukemia, 67.7 µM; with HOP-62 NSCLC, 43.2 µM; with SNB-19 CNS, 38.1 µM; in the test on HCT-116 colon, 41.5 µM. Moreover, the TGI with HOP-92 NSCLC is 51.1 µM; with KM12 colon, more than 59.5 µM; in the test on SK-OV-3 ovarian it was more than 85.9 µM.
In the case of `Cc1cc(S(=O)(=O)Nc2nc3ccccc3c(=O)n2N)c(S)cc1Cl`, the TGI is more than 100 µM in the test with SK-MEL-2 melanoma; more than 100 µM with EKVX NSCLC; more than 100 µM in the test with MOLT-4 leukemia; 79.7 µM with HOP-62 NSCLC; 47.2 µM in the test with SNB-19 CNS; more than 100 µM in the test with HCT-116 colon. For the same compound, the TGI in the test with KM12 colon and in the test on SK-OV-3 ovarian was more than 100 µM in each case. Also, the GI50 with SNB-19 CNS was 15.7 µM.
As for `Oc1ccc(-c2nc3ccc(Cl)cc3s2)cc1`, the TGI was 34 µM with SK-MEL-2 melanoma; 31 µM with EKVX NSCLC; more than 100 µM in the test on MOLT-4 leukemia; 51.1 µM in the test on SR leukemia; 40.4 µM in the test with SNB-19 CNS; 29.5 µM in the test with HCT-116 colon. Also, the TGI was found to be 34.2 µM in the test with KM12 colon and 36.4 µM in the test with SK-OV-3 ovarian.
Regarding `Cc1ccc2c(c1)-c1nc(N)c(C#N)c(-c3ccccc3)c1CCS2(=O)=O`, the TGI with SK-MEL-2 melanoma is more than 100 µM; in the test with HOP-62 NSCLC, more than 100 µM; in the test with SNB-19 CNS it was 67.7 µM; in the test on HCT-116 colon, more than 100 µM; with HOP-92 NSCLC, 80.3 µM; with KM12 colon it was more than 100 µM.
For `COc1ccc2c(c1)CCc1c-2n(CCN2CCCCC2)c2ccc(OC)cc12`, the TGI in the test with SK-MEL-2 melanoma, in the test on EKVX NSCLC, in the test on SR leukemia, in the test on HOP-62 NSCLC, in the test on SNB-19 CNS and with HCT-116 colon was more than 100 µM throughout. In addition, the TGI in the test on SK-OV-3 ovarian is more than 100 µM.
`O=c1/c(=C/c2ccc(-c3ccc(Cl)cc3Cl)o2)sc2n1[C@@H](c1ccc(Cl)cc1)C=C(c1cc(F)c(Cl)cc1Cl)N=2`: the TGI was more than 100 µM in the test with SK-MEL-2 melanoma; 67.9 µM in the test with MOLT-4 leukemia; 34.6 µM in the test on HOP-62 NSCLC; more than 100 µM with SNB-19 CNS; more than 100 µM in the test on HCT-116 colon; 61.7 µM with HOP-92 NSCLC. Further, the TGI with KM12 colon was more than 100 µM; in the test with SK-OV-3 ovarian, 61.7 µM.
